Source: patent publication US11629171B2, “Beta-hairpin peptidomimetics” (POLYPHOR AG, priority 2017, dated 2023)
≈ marks a conversion by molar mass, not a printed value. Where a SMILES comes first, the peptide text is derived from it. Bridges are numbered along the chain shown (N, C = ends). Roman numbers before positions name the chains, in order. [ ]: non-standard residue; d: D form. The star is where a group is joined. Leu(3R-OH) = CC(C)[C@@H](O)[C@H](N)C(=O)O; Heptanoyl(6-Me) = CC(C)CCCCC(=O)*; Thr(ol) = C[C@@H](O)[C@H](N)CO; Tle = CC(C)(C)[C@H](N)C(=O)O; NMeV = CN[C@H](C(=O)O)C(C)C; Hiv = CC(C)[C@H](O)C(=O)O; dDab = NCC[C@@H](N)C(=O)O; hSer = N[C@@H](CCO)C(=O)O; Orn = NCCC[C@H](N)C(=O)O; Dab = NCC[C@H](N)C(=O)O; Dap = NC[C@H](N)C(=O)O

Tests used:
Assay type in all cases: cell-based
[1] = system: Acinetobacter baumannii DSM 30008; conditions: DSM 30008
Summary of the method: (§1)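 CLSI broth microdilution: inoculum ~10^6 CFU/mL in cation-adjusted Mueller-Hinton II broth, with peptide in serial two-fold dilutions plus Polysorbate 80 (0.002% final). MIC (μg/mL) is the lowest concentration without visible growth after 18-20 hours at 35° C.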

[2] = system: Acinetobacter baumannii 872842; conditions: 872842
Summary of the method: as §1

[3] = system: Escherichia coli ATCC 25922; conditions: ATCC 25922
Summary of the method: as §1

[4] = system: Klebsiella pneumoniae 968733; conditions: 968733
Summary of the method: as §1

[5] = system: Klebsiella pneumoniae SSI #3010; conditions: SSI #3010
Summary of the method: as §1

[6] = system: Escherichia coli 926415; conditions: 926415
Summary of the method: as §1

[7] = system: Pseudomonas aeruginosa ATCC 27853; conditions: ATCC 27853
Summary of the method: as §1

[8] = system: Enterobacter cloacae 848840; conditions: 848840
Summary of the method: as §1

[9] = system: human red blood cells (hRBC); experiment: Hemolysis; conditions: red cells of human, 1 h, 200
Summary of the method: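 Washed fresh human RBC (20% v/v) incubated with peptide at 200 μg/mL for 1 h at 37° C with shaking. Supernatant OD540 measured after dilution, blank corrected; percent hemolysis = OD540 peptide / OD540 of 2% Triton X-100 lysis × 100, PBS with 10% water as 0%.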

Row | Structure (SMILES) | MIC [1] [µg/mL] | MIC [2] [µg/mL] | MIC [3] [µg/mL] | MIC [4] [µg/mL] | MIC [5] [µg/mL] | MIC [6] [µg/mL] | MIC [7] [µg/mL] | MIC [8] [µg/mL] | Hemolysis at 200 μg/mL [9] [%] | Acinetobacter baumannii DSM 30008 MIC [1] [µg/mL] | Escherichia coli ATCC 25922 MIC [3] [µg/mL] | Klebsiella pneumoniae SSI #3010 MIC [5] [µg/mL] | Pseudomonas aeruginosa ATCC 27853 MIC [7] [µg/mL]
1 | CC(C)C[C@@H]1NC(=O)[C@@H](CC(C)C)NC(=O)[C@H](CCN)NC(=O)[C@@H](NC(=O)[C@H](CN)NC(=O)[C@@H](NC(=O)[C@H](CCN)NC(=O)CC[C@H]2NC(=O)[C@H](CCCN)NC(=O)[C@@H](NC(=O)[C@H](Cc3ccc(O)cc3)NC(=O)[C@@H](NC(=O)[C@@H](O)C(C)C)[C@@H](C)O)CSSC[C@@H](C(=O)N[C@H](C(=O)N[C@@H](C)C(=O)N[C@H](CO)[C@@H](C)O)C(C)(C)C)NC(=O)[C@H](Cc3c[nH]c4ccccc34)NC(=O)[C@H]([C@@H](C)O)NC2=O)[C@@H](C)O)CCNC(=O)[C@H]([C@@H](C)O)NC(=O)[C@H](CCN)NC(=O)[C@H](CCN)NC1=O [Ex. 210] (I: H-[Hiv]TYC[Orn][dE]TWC[Tle]A[Thr(ol)] / II: [Dab]T[Dap][Dab][Dab][dL]L[Dab][Dab]T; disulfide I:4-I:9; amide I:6-II:N; lactam II:4-II:C) | 0.25 (≈ 0.105 µM) | 0.5 (≈ 0.21 µM) | 0.125 (≈ 0.0524 µM) | 2 (≈ 0.838 µM) | 0.25 (≈ 0.105 µM) | 2 (≈ 0.838 µM) | 0.25 (≈ 0.105 µM) | 2 (≈ 0.838 µM) | <1 |  |  |  | 
2 | CC(C)CCCCC(=O)N[C@H](C(=O)N[C@H]1CSSC[C@@H](C(=O)N[C@@H](CO)C(N)=O)NC(=O)[C@H](C(C)C)NC(=O)[C@H](CCO)NC(=O)[C@H](Cc2c[nH]c3ccccc23)NC(=O)[C@H](CCO)NC(=O)[C@@H](CCN)NC(=O)[C@H](CCC(=O)N[C@@H](CCN)C(=O)N[C@H](C(=O)N[C@@H](CCN)C(=O)N[C@H]2CCNC(=O)[C@H]([C@@H](C)O)NC(=O)[C@H](CCN)NC(=O)[C@H](CCN)NC(=O)[C@H](CC(C)C)NC(=O)[C@@H](CC(C)C)NC(=O)[C@H](CCN)NC2=O)[C@@H](C)O)NC(=O)[C@H](CCN)NC(=O)[C@H](Cc2ccc(O)cc2)NC1=O)C(C)C [Ex. 40] (I: {Heptanoyl(6-Me)}-VCY[Dab]E[dDab][hSer]W[hSer]VCS-NH2 / II: [Dab]T[Dab][Dab][Dab][dL]L[Dab][Dab]T; disulfide I:2-I:11; amide I:5-II:N; lactam II:4-II:C) | 1 (≈ 0.396 µM) | 0.5 (≈ 0.198 µM) | 0.125 (≈ 0.0495 µM) | 0.25 (≈ 0.099 µM) | 0.5 (≈ 0.198 µM) | 1 (≈ 0.396 µM) | 0.25 (≈ 0.099 µM) | 0.5 (≈ 0.198 µM) | 2 |  |  |  | 
3 | CC(=O)N[C@H](C(=O)N[C@H]1CSSC[C@@H](C(=O)N[C@@H](CO)C(N)=O)NC(=O)[C@H](C(C)C)NC(=O)[C@H](CO)NC(=O)[C@H](Cc2c[nH]c3ccccc23)NC(=O)[C@H]([C@@H](C)O)NC(=O)[C@@H](CCN)NC(=O)[C@H](CCC(=O)N[C@@H](CCN)C(=O)N[C@H](C(=O)N[C@@H](CCN)C(=O)N[C@H]2CCNC(=O)[C@H]([C@@H](C)O)NC(=O)[C@H](CCN)NC(=O)[C@H](CCN)NC(=O)[C@H](CC(C)C)NC(=O)[C@@H](CC(C)C)NC(=O)[C@H](CCN)NC2=O)[C@@H](C)O)NC(=O)[C@H](CCN)NC(=O)[C@H](Cc2ccc(O)cc2)NC1=O)C(C)C [Ex. 45] (I: Ac-VCY[Dab]E[dDab]TWSVCS-NH2 / II: [Dab]T[Dab][Dab][Dab][dL]L[Dab][Dab]T; disulfide I:2-I:11; amide I:5-II:N; lactam II:4-II:C) | 0.0625 (≈ 0.0258 µM) | 0.25 (≈ 0.103 µM) | 0.0625 (≈ 0.0258 µM) | 0.5 (≈ 0.206 µM) | 0.125 (≈ 0.0515 µM) | 0.5 (≈ 0.206 µM) | 0.125 (≈ 0.0515 µM) | 0.25 (≈ 0.103 µM) | <1 |  |  |  | 
4 | CC(=O)N[C@H](C(=O)N[C@H]1CCN(C)C(=O)C[C@@H](C(=O)N[C@@H](CO)C(N)=O)NC(=O)[C@H](C(C)C)NC(=O)[C@H](CO)NC(=O)[C@H](Cc2c[nH]c3ccccc23)NC(=O)[C@H](CO)NC(=O)[C@@H](CCN)NC(=O)[C@H](CCC(=O)N[C@@H](CCN)C(=O)N[C@H](C(=O)N[C@@H](CN)C(=O)N[C@H]2CCNC(=O)[C@H]([C@@H](C)O)NC(=O)[C@H](CCN)NC(=O)[C@H](CCN)NC(=O)[C@H](CC(C)C)NC(=O)[C@@H](CC(C)C)NC(=O)[C@H](CCN)NC2=O)[C@@H](C)O)NC(=O)[C@H](CCN)NC(=O)[C@H](Cc2ccc(O)cc2)NC1=O)C(C)C [Ex. 302] |  | 0.5 (≈ 0.208 µM) |  | 2 (≈ 0.831 µM) |  | 2 (≈ 0.831 µM) |  | 0.5 (≈ 0.208 µM) | 3 | 0.125 | 0.0625 | 0.125 | 0.125
5 | CN[C@H](C(=O)N[C@H]1CSSC[C@@H](C(=O)N[C@@H](CO)C(N)=O)NC(=O)[C@H](C(C)C)NC(=O)[C@H](CCO)NC(=O)[C@H](Cc2c[nH]c3ccccc23)NC(=O)[C@H](CCO)NC(=O)[C@@H](CCN)NC(=O)[C@H](CCC(=O)N[C@@H](CCN)C(=O)N[C@H](C(=O)N[C@@H](CCN)C(=O)N[C@H]2CCNC(=O)[C@H]([C@@H](C)O)NC(=O)[C@H](CCN)NC(=O)[C@H](CCN)NC(=O)[C@H](CC(C)C)NC(=O)[C@@H](CC(C)C)NC(=O)[C@H](CCN)NC2=O)[C@@H](C)O)NC(=O)[C@H](CCN)NC(=O)[C@H](Cc2ccc(O)cc2)NC1=O)C(C)C [Ex. 50] (I: H-[NMeV]CY[Dab]E[dDab][hSer]W[hSer]VCS-NH2 / II: [Dab]T[Dab][Dab][Dab][dL]L[Dab][Dab]T; disulfide I:2-I:11; amide I:5-II:N; lactam II:4-II:C) | 0.25 (≈ 0.104 µM) | 1 (≈ 0.414 µM) | 0.125 (≈ 0.0518 µM) | 4 (≈ 1.66 µM) | 0.125 (≈ 0.0518 µM) | 0.5 (≈ 0.207 µM) | 0.25 (≈ 0.104 µM) | 8 (≈ 3.32 µM) | <1 |  |  |  | 
6 | CC(=O)N[C@H](C(=O)N[C@H]1CSSC[C@@H](C(=O)N[C@H](C(N)=O)[C@@H](C)O)NC(=O)[C@H](C(C)(C)C)NC(=O)[C@H](CCC(=O)O)NC(=O)[C@H](Cc2c[nH]c3ccccc23)NC(=O)[C@H](CCN)NC(=O)[C@@H](CCN)NC(=O)[C@H](CCC(=O)N[C@@H](CCN)C(=O)N[C@H](C(=O)N[C@@H](CN)C(=O)N[C@H]2CCNC(=O)[C@H]([C@@H](C)O)NC(=O)[C@H](CCN)NC(=O)[C@H](CCN)NC(=O)[C@H]([C@H](O)C(C)C)NC(=O)[C@@H](CC(C)C)NC(=O)[C@H](CCN)NC2=O)[C@@H](C)O)NC(=O)[C@H](CO)NC(=O)[C@H](Cc2ccc(O)cc2)NC1=O)C(C)C [Ex. 134] (I: Ac-VCYSE[dDab][Dab]WE[Tle]CT-NH2 / II: [Dab]T[Dap][Dab][Dab][dL][Leu(3R-OH)][Dab][Dab]T; disulfide I:2-I:11; amide I:5-II:N; lactam II:4-II:C) | 0.03125 (≈ 0.0126 µM) | 0.0625 (≈ 0.0252 µM) | 0.03125 (≈ 0.0126 µM) | 0.125 (≈ 0.0503 µM) | 0.03125 (≈ 0.0126 µM) | 0.125 (≈ 0.0503 µM) | 0.125 (≈ 0.0503 µM) | 0.125 (≈ 0.0503 µM) | 3 |  |  |  | 
7 | CC(C)C[C@@H]1NC(=O)[C@@H](CC(C)C)NC(=O)[C@H](CCN)NC(=O)[C@@H](NC(=O)[C@H](CN)NC(=O)[C@@H](NC(=O)[C@H](CCN)NC(=O)CC[C@@H]2NC(=O)[C@H](CCN)NC(=O)[C@H](Cc3ccc(O)cc3)NC(=O)[C@@H](NC(=O)[C@@H](O)C(C)C)CCN(C)C(=O)C[C@@H](C(=O)N[C@@H](CO)C(N)=O)NC(=O)[C@H](C(C)C)NC(=O)[C@H](CO)NC(=O)[C@H](Cc3c[nH]c4ccccc34)NC(=O)[C@H](CO)NC(=O)[C@@H](CCN)NC2=O)[C@@H](C)O)CCNC(=O)[C@H]([C@@H](C)O)NC(=O)[C@H](CCN)NC(=O)[C@H](CCN)NC1=O [Ex. 304] |  | 1 (≈ 0.423 µM) |  | 4 (≈ 1.69 µM) |  | 2 (≈ 0.846 µM) |  | 2 (≈ 0.846 µM) | <1 | 0.25 | 0.125 | 0.0625 | 0.25
